Assay results as given in US9447056B2, “Solid forms of epalrestat” (Bionevia Pharmaceuticals, Inc., priority 2008, dated 2016).

Assay: Solid-form stability on compression into a disk (XRPD)
Assay type: physicochemical
Conditions: compressed into a disk at 3400 pounds of pressure (117 MPa) for 1 minute, Carver hydraulic press and pellet die
Text: In various embodiments, the novel betaine cocrystal of epalrestat described herein is stable.

Substance: betaine hydrogen diepalrestat [betaine hydrogen diacid cocrystal]
- change in XRPD pattern after compression: no change in the XRPD pattern
